Structures are written as SMILES. Values after ≈ are worked out from the molar mass of the structure shown. Where two headings read alike, the source gives them in different places.

The source of these data is patent US4031231A, “Antibacterial composition comprising 3-fluoro-D-alanine or deutero analog in combination with auto-antagonist inhibitor” (priority 1976, dated 1977).

Data set [1] in a line: Release of cycloserine or methyl-cycloserine in vivo when administered clinically. To be noted: for effectiveness in releasing cycloserine or methyl-cycloserine in vivo: administered clinically, substantially avoiding dimerization.
Data set [2] is described as follows: Stability in aqueous solution. In kind it is physicochemical.
In data set [3] the test system is Escherichia coli (Strain 2017). Description: Growth inhibition (complete repression of growth) of Escherichia coli culture. In kind it is cell-based. To be noted: for concentration of FDA-autoantagonist-inhibitor at which growth is completely repressed in combination with 3-fluoro-D-alanine / inhibitor-effective concentration as percentage of its own minimum effective antibacterial concentration: combined with 3-fluoro-D-alanine at 50 μg/ml. How it is done: When the 3-fluoro-D-alanine, at this concentration of 50 μg/ml, is combined with an FDA-autoantagonist-inhibitor, such as cycloserine at concentrations of only 0.39 μg/ml, terizidone at 0.8 μg/ml, D-4-(1'-methyl-3'-oxo-1'-butenyl)amino-3-isoxazolidinone or its sodium salt at 0.72 μg/ml, or D-cis-cyclothreonine at approximately 2 μg/ml, growth of the Escherichia coli is completely repressed.

The test system of data set [4] is Staphylococcus aureus 2949. Description: Protection of mice infected with Staphylococcus aureus 2949 (ED50). In kind it is in vivo, Staphylococcus aureus 2949; female C.D.1 mice. The following applies: 30 LD50; subcutaneous at 0, 2, 4 hours; 50% protected for 7 days. As to the method: (§1) Female C.D.1 mice of average weight 21.0 g. are injected intraperitoneally with 0.5 ml. of an appropriate dilution of a 16-hour broth culture containing the indicated pathogen. (The severity of the infectious challenge is represented in each case as the multiple of the dilution of the broth culture which is lethal for only 50% of the untreated population, i.e. No. LD50.) Appropriate dosages of 3-fluoro-D-alanine(FDA) and D-cycloserine, individually, and combinations of these two components in a fixed ration of 1:1 are administered in 0.5 ml volume subcutaneously on the dorsal surface, promptly at the time of the injection, and at 2 hour and 4 hour intervals thereafter. The results of these tests, which are expressed as the ED50 dose, which is the statistically interpolated dose required to protect 50% of the infected population for a period of 7 days following challenge and treatment, are as follows: […]

For data set [5], the system named is Escherichia coli 2017. Description: Survival of mice infected with Escherichia coli 2017. In kind it is in vivo, Escherichia coli 2017; female C.D.1 mice. To be noted: for number of survivors in each group of five infected mice: subcutaneous, 3 LD50. How it is done: Groups of five female C.D.1 mice of average weight 21.0 g are injected intraperitoneally with 0.5 ml of a diluted broth culture of Escherichia coli 2017 representing 3 LD50 of bacterial pathogens. The indicated dosages of 3-fluoro-D-alanine (FDA) and D-cycloserine are then promptly administered in a 0.5 ml volume by the subcutaneous route on the dorsal surface.
Across the top row of the tabulation are listed the number of mice surviving (in each group of five infected mice) for the indicated doses (mg) of 3-fluoro-D-alanine alone; in the first vertical column are listed the number surviving for the indicated doses (mg) of cycloserine alone; and in the second vertical column are listed the number of mice surviving for combination doses of 5.0 mg of 3-fluoro-D-alanine and the indicated amount (mg) of cycloserine.

Data set [6] has as its system Escherichia coli (Strain 2017). Description: Growth inhibition (complete repression of growth) of Escherichia coli culture. In kind it is cell-based. The following applies: for MIC: Escherichia coli, read-out: minimum concentration for complete inhibition (repression) of growth.
The test system of data set [7] is Serratia species 3374. Put plainly: Protection of mice infected with Serratia species 3374 (ED50). Format: in vivo, Serratia species 3374; female C.D.1 mice. The following applies: 3 LD50; subcutaneous at 0, 2, 4 hours; 50% protected for 7 days. How it is done: as §1
Where [8] appears, read: individual component alone, E. coli Strain 2017.

Regarding `CC(=O)C(C)=C(C)N[C@@H]1CONC1=O` [D-4-(1',2'-dimethyl-3'-oxo-1'-butenyl)amino-3-isoxazolidinone], in data set [1], the “effectiveness in releasing cycloserine or methyl-cycloserine in vivo” value is on record as “extremely effective”. Also, the “stability in aqueous solution” value in data set [2] is “remarkably stable in aqueous solution”.
As for `CC(=O)C=C(C)N[C@@H]1CONC1=O` [D-4-(1'-methyl-3'-oxo-1'-butenyl)amino-3-isoxazolidinone], in data set [3], the “concentration of FDA-autoantagonist-inhibitor at which growth is completely repressed in combination with 3-fluoro-D-alanine” value turned out to be 0.72 µg/mL. In addition, the “effectiveness in releasing cycloserine or methyl-cycloserine in vivo” value in data set [1] is on record as “extremely effective”. Moreover, the “effectiveness in releasing cycloserine in the blood stream and in the bladder” value in data set [1] (blood stream, bladder) is given as “of particular effectiveness”. Also, the “stability in aqueous solution” value in data set [2] is “remarkably stable in aqueous solution”.
Consider `C[C@@H]1ONC(=O)[C@@H]1N` [D-cis-cyclothreonine], for which, in data set [3], the “concentration of FDA-autoantagonist-inhibitor at which growth is completely repressed in combination with 3-fluoro-D-alanine” value is reported as “approximately 2 μg/ml” and the “inhibitor-effective concentration as percentage of its own minimum effective antibacterial concentration” value is “less than 2%”.
Consider `N[C@H](CF)C(=O)O` [FDA, 3-fluoro-D-alanine], for which the MIC in data set [3] (Escherichia coli, read-out: concentration at which growth is completely repressed) was determined as 3.2 µg/mL (≈ 29.9 µM); in data set [6] (setting [8]) it was 3.12 µg/mL (≈ 29.1 µM). For the same molecule, the results for the “ED50, individual components” value in data set [4] and in data set [7] were 0.801 mg/dose and 1.7 mg/dose, respectively. The survival in data set [5] (1.25 mg dose of 3-fluoro-D-alanine alone) was determined as 80%; in data set [5] (5.0 mg dose of 3-fluoro-D-alanine alone (autoantagonism)) it was 20%. Besides, the “number of survivors in each group of five infected mice” value in data set [5] (FDA alone 0.078 mg) was determined as 0 mice; in data set [5] (FDA alone 0.312 mg), 3 mice; in data set [5] (FDA alone 1.25 mg) it was 4 mice; in data set [5] (FDA alone 5.0 mg), 1 mice. The “growth of the organism at higher concentration (autoantagonist action)” value in data set [6] (3-fluoro-D-alanine alone at 50 μg/ml) is on record as “extensive growth”.
`N[C@@H]1CON=C1O` [cycloserine, D-4-amino-3-isoxazolidinone, reference compound]: the “concentration of FDA-autoantagonist-inhibitor at which growth is completely repressed in combination with 3-fluoro-D-alanine” value in data set [3] came out at 0.39 µg/mL. In addition, the “inhibitor-effective concentration as percentage of its own minimum effective antibacterial concentration” value in data set [3] is “less than 2%”. Also, the “ED50, individual components” value in data set [4] is on record as 0.400 mg/dose; in data set [7] it was 2.5 mg/dose. Also, the “suppression of the autoantagonism shown by 3-fluoro-D-alanine” value in data set [5] (0.156 mg of cycloserine with 5.0 mg of 3-fluoro-D-alanine) is listed as “completely suppresses the autoantagonism”. The “number of survivors in each group of five infected mice” value in data set [5] (D-cycloserine alone 0.078 mg) is 0 mice; in data set [5] (D-cycloserine alone 0.312 mg), 0 mice; in data set [5] (D-cycloserine alone 1.25 mg), 3 mice; in data set [5] (D-cycloserine alone 5.0 mg), 5 mice. Also, in data set [5] (cycloserine alone, 0.156 mg), the protection result is reported as “zero protection”. In addition, the MIC in data set [6] (setting [8]) came out at 25 µg/mL (≈ 245 µM). Moreover, the “minimum concentration for complete inhibition (repression) of growth” value in data set [6] (setting [8]) worked out at 25 µg/mL.
For `O=C1NOCC1/N=C/c1ccc(/C=N/C2CONC2=O)cc1` (stereo not drawn) [terizidone], in data set [3], the “concentration of FDA-autoantagonist-inhibitor at which growth is completely repressed in combination with 3-fluoro-D-alanine” value was found to be 0.8 µg/mL and the “inhibitor-effective concentration as percentage of its own minimum effective antibacterial concentration” value is recorded as “less than 2%”.
